Assay results from PMC12186843, “Targeting GABAergic Hypofunction Associated with Schizophrenia: Identification of α1β2γ2GABA‑A Receptor Ligands with Neuroprotective and Antipsychotic Properties” (ACS Chemical Neuroscience, 2025).

Assays:
Wistar rats [1] = assay: MK-801-induced hyperlocomotion; assay type: in vivo, rat; conditions: i.p., 1, 3 and 10 mg/kg, significant effect at 10 mg/kg, MK-801 0.3 mg/kg i.p.
Description: 8 (A). […] The dose of 0 mg/kg corresponds to subjects treated with vehicle and amphetamine (1.0 mg/kg, i.p.). Data are presented as the mean ± SEM (n = 8). One-way ANOVA F(3,28)=0.2, p > 0.05, one-way ANOVA F(3,28)=[…], p < 0.01**. (B). […] The dose of 0 mg/kg corresponds to subjects treated with vehicle and MK-801 (0.3 mg/kg, i.p.). Data are presented as the mean ± SEM (n = 8). ** p < 0.01, Newman-Keuls test, F(3,28)=5.29, p = 0.005. (C) Effects of compound 9, administered at doses ranging from 1 to 10 mg/kg, on spontaneous locomotor activity in rats. Data are presented as the mean ± SEM (n = 8). One-way ANOVA F(3,28) = 0.3, p > 0.05, one-way ANOVA F(3,28) = 6.7, p < 0.01*.
(§1) All behavioral procedures were conducted using drug-naive male Wistar rats (Charles River, Sulzfeld, Germany), (n = 8/per group). Animals were housed in groups of four per standard plastic cage under controlled environmental conditions (temperature: 22 ± 1 °C, humidity: 60%, and a 12:12 light-dark cycle with lights on at 07:00 a.m.). […]
All procedures were performed in a sound-attenuated experimental room between 9:00 a.m. and 3:00 p.m. […] Locomotor activity was measured in black octagonal cages (80 cm diameter, 30 cm height) amid dim lighting and constant white noise (65 dB). […] Locomotor activity (cm/30 min) was recorded and analyzed using an automated motion monitoring system (Videomot, TSE, Bad Homburg, Germany). […]

Wistar rats [2] = assay: Prepulse inhibition (PPI) test with MK-801; assay type: in vivo, rat; conditions: i.p.
Description: as §1, with “a.m.). Animals were obtained from the breeder 2 weeks prior to the initiation of behavioral procedures, during which time they were weighed and handled multiple times. Animals had ad libitum access to tap water and standard laboratory chow (Labofeed H, WPIK, Kcynia, Poland).” for “a.m.).”
The PPI apparatus consisted of eight startle chambers (SR-LAB, San Diego Instruments, San Diego, CA, USA). […] Startle responses, reflecting the movement of animals within the cylinder following an acoustic stimulus, were measured with a piezoelectric transducer positioned beneath the frame. […]
The preliminary stimuli were followed by 60 trials of varying intensities presented in random order, with a mean intertrial interval (ITI) of 22.5 s. […] Startle amplitudes were calculated as the average response across 10 trials for each stimulation type. […] Startle responses (in manufacturer’s arbitrary units), and magnitudes of PPI (%) were analyzed with the aid of a one-way analysis of variance (ANOVA). […]

[3] = rats, i.p., 3 mg/kg, ref Mordyl, B. et al. J. Med. Chem. 2024, 67 (24), 21859–21889, cited from earlier work

Q: What does the source list for `Cc1ccc2nc(-c3ccc(F)cc3)c(CC(=O)N3CCCC3)n2c1.O=C(O)C(O)C(O)C(=O)O` [Compound 17, 2-(4-Fluorophenyl)-6-methyl-3-(2-oxo-2-(pyrrolidin-1-yl)-ethyl)imidazo[1,2-a]pyridin-1-ium 3-carboxy-2,3-dihydroxy-propanoate]?
A: Effect on MK-801-induced hyperlocomotion (Wistar rats [1]): reduced hyperlocomotion; Effect on basic startle response (Wistar rats [2]; F(3,28) = 1.66, p = 0.2): did not affect significantly basic startle response; Effect on MK-801-induced PPI deficits (Wistar rats [2]; prestimulus of 84 and 90 dB, p = 0.82 and p = 0.72): the effect did not reach statistical significance; t0.5 Plasma ([3]; n=6, plasma, terminal half life): 249 min; AUC0→t Brain ([3]; n=6, brain): 8229 ng·min/g; Cmax Brain ([3]; n=6, brain): 219.5 ng/g; MRT Brain ([3]; n=6, brain): 102.5 min; tmax Brain ([3]; n=6, brain): 5 min; t0.5 Brain ([3]; n=6, brain, terminal half life): 653.2 min; AUC0→t Plasma ([3]; n=6, plasma): 128271 ng·min/mL; MRT Plasma ([3]; n=6, plasma): 50.9 min; tmax Plasma ([3]; n=6, plasma): 5 min
